Measurements as given in BindingDB's records for doi:10.1021/acsmedchemlett.6b00489 (Peking University, 2017).

Experiment: Inhibition of SDHB in human U2OS cells over-expressing tBid assessed as reduction in apoptosis preincubated for 1 hr followed by doxycyclin addition to induce tBid protein expression measured after 24 hrs by Cell Titer-Glo assay

**Q.** Which EC50 does the source give for `COc1ccc(Cn2cc(-c3cc(C(F)(F)F)nc(S(=O)(=O)CCCC(=O)NC45CC6CC(CC(C6)C4)C5)n3)ccc2=O)cc1OC` here?
**A.** The EC50 was 0.23 nM.

Experiment: Inhibition of SDHB in human U2OS cells over-expressing Bim assessed as inhibition of apoptosis preincubated for 1 hr followed by doxycyclin addition to induce Bim protein expression measured after 24 hrs by Cell Titer-Glo assay

**Q.** For `COc1ccc(Cn2cc(-c3cc(C(F)(F)F)nc(S(=O)(=O)CCCC(=O)N4CCCCC4)n3)ccc2=O)cc1OC`, which EC50 is on record?
**A.** The EC50 was 1.4 nM.

**Q.** For `COc1ccc(Cn2cc(-c3cc(C(F)(F)F)nc(S(=O)(=O)CCCC(=O)N4CCCC4)n3)ccc2=O)cc1OC`, which EC50 is on record?
**A.** The EC50 was 27 nM.

**Q.** For `COCCCS(=O)(=O)c1nc(-c2ccc(=O)n(Cc3ccc(OC)c(OC)c3)c2)cc(C(F)(F)F)n1`, which EC50 is on record?
**A.** The EC50 was 282 nM.

**Q.** For `COCCS(=O)(=O)c1nc(-c2ccc(=O)n(Cc3ccc(OC)c(OC)c3)c2)cc(C(F)(F)F)n1`, which EC50 is on record?
**A.** Its EC50 is 216 nM.

**Q.** Which EC50 does the source give for `CCCCCCCS(=O)(=O)c1nc(-c2ccc(=O)n(Cc3ccc(OC)c(OC)c3)c2)cc(C(F)(F)F)n1` here?
**A.** Its EC50 is 253 nM.

**Q.** Which EC50 does the source give for `COc1ccc(Cn2cc(-c3cc(C(F)(F)F)nc(S(C)(=O)=O)n3)ccc2=O)cc1OC` here?
**A.** The EC50 was 25 nM.

**Q.** With `CS(=O)(=O)c1nc(-c2ccc(=O)n(Cc3ccc(C#N)cc3)c2)cc(C(F)(F)F)n1` as the compound, how does the EC50 read?
**A.** The EC50 was 3490 nM.

**Q.** Which EC50 does the source give for `CS(=O)(=O)c1nc(-c2ccc(=O)n(Cc3cccc(C#N)c3)c2)cc(C(F)(F)F)n1` here?
**A.** The EC50 was 4060 nM.

**Q.** With `C#Cc1cccc(Cn2cc(-c3cc(C(F)(F)F)nc(S(C)(=O)=O)n3)ccc2=O)c1` as the compound, how does the EC50 read?
**A.** The EC50 was 4480 nM.

**Q.** Which EC50 does the source give for `COc1ccc(Cn2cc(-c3cc(C(F)(F)F)nc(S(C)(=O)=O)n3)ccc2=O)cc1` here?
**A.** Its EC50 is 94 nM.

**Q.** For `CCOc1cccc(Cn2cc(-c3cc(C(F)(F)F)nc(S(C)(=O)=O)n3)ccc2=O)c1`, which EC50 is on record?
**A.** Its EC50 is 110 nM.

**Q.** Which EC50 does the source give for `COc1cccc(Cn2cc(-c3cc(C(F)(F)F)nc(S(C)(=O)=O)n3)ccc2=O)c1` here?
**A.** The EC50 was 57 nM.

**Q.** Which EC50 does the source give for `CS(=O)(=O)c1nc(-c2ccc(=O)n(Cc3cccc(O)c3)c2)cc(C(F)(F)F)n1` here?
**A.** Its EC50 is 1820 nM.

**Q.** With `CS(=O)(=O)c1nc(-c2ccc(=O)n(Cc3cccc(Cl)c3)c2)cc(C(F)(F)F)n1` as the compound, how does the EC50 read?
**A.** Its EC50 is 257 nM.

**Q.** Which EC50 does the source give for `CS(=O)(=O)c1nc(-c2ccc(=O)n(Cc3ccccc3Cl)c2)cc(C(F)(F)F)n1` here?
**A.** The EC50 was 1140 nM.

**Q.** With `CS(=O)(=O)c1nc(-c2ccc(=O)n(Cc3ccccc3)c2)cc(C(F)(F)F)n1` as the compound, how does the EC50 read?
**A.** The EC50 was 1160 nM.

**Q.** With `CS(=O)(=O)c1nc(-c2cccc(Oc3ccccc3)c2)cc(C(F)(F)F)n1` as the compound, how does the EC50 read?
**A.** Its EC50 is 8760 nM.

**Q.** For `CN(C)C(=O)c1cccc(-c2cc(C(F)(F)F)nc(S(C)(=O)=O)n2)c1`, which EC50 is on record?
**A.** Its EC50 is > 20000 nM.

**Q.** For `Cc1ccc(-c2cc(C(F)(F)F)nc(S(C)(=O)=O)n2)cc1`, which EC50 is on record?
**A.** Its EC50 is 6360 nM.

**Q.** With `Cc1cccc(-c2cc(C(F)(F)F)nc(S(C)(=O)=O)n2)c1` as the compound, how does the EC50 read?
**A.** Its EC50 is 3490 nM.

**Q.** For `Cc1ccccc1-c1cc(C(F)(F)F)nc(S(C)(=O)=O)n1`, which EC50 is on record?
**A.** The EC50 was 6640 nM.

**Q.** With `CS(=O)(=O)c1nc(-c2cccs2)cc(C2CCC(=O)N2)n1` (centres undefined) as the compound, how does the EC50 read?
**A.** Its EC50 is > 20000 nM.

**Q.** Which EC50 does the source give for `CS(=O)(=O)c1nc(-c2cccs2)cc(-c2cccs2)n1` here?
**A.** The EC50 was > 20000 nM.

**Q.** With `Cc1cc(-c2cccs2)nc(S(C)(=O)=O)n1` as the compound, how does the EC50 read?
**A.** Its EC50 is > 20000 nM.

**Q.** With `O=S(=O)(Cc1ccc(-c2ccccc2)cc1)c1nc(-c2cccs2)cc(C(F)(F)F)n1` as the compound, how does the EC50 read?
**A.** The EC50 was 4210 nM.

**Q.** For `CCOC(=O)CCS(=O)(=O)c1nc(-c2cccs2)cc(C(F)(F)F)n1`, which EC50 is on record?
**A.** The EC50 was 1140 nM.

**Q.** For `CCS(=O)(=O)c1nc(-c2cccs2)cc(C(F)(F)F)n1`, which EC50 is on record?
**A.** Its EC50 is 1430 nM.

**Q.** With `COC(=O)c1cccc(-c2cc(C(F)(F)F)nc(S(C)(=O)=O)n2)c1` as the compound, how does the EC50 read?
**A.** Its EC50 is 3520 nM.

**Q.** For `COC(=O)c1ccccc1-c1cc(C(F)(F)F)nc(S(C)(=O)=O)n1`, which EC50 is on record?
**A.** The EC50 was 7030 nM.

**Q.** With `COc1ccc(Cn2cc(-c3cc(C(F)(F)F)nc(S(=O)(=O)CCCC(=O)NC45CC6CC(CC(C6)C4)C5)n3)ccc2=O)cc1OC` as the compound, how does the EC50 read?
**A.** The EC50 was 0.42 nM.

**Q.** With `Cc1ccc(O)c(NC(=O)CCCS(=O)(=O)c2nc(-c3cccs3)cc(C(F)(F)F)n2)c1` as the compound, how does the EC50 read?
**A.** The EC50 was 4000 nM.

**Q.** For `COc1ccc(Cn2cc(-c3cc(C(F)(F)F)nc(S(=O)(=O)CCCC(N)=O)n3)ccc2=O)cc1OC`, which EC50 is on record?
**A.** Its EC50 is > 20000 nM.

**Q.** For `COc1ccc(Cn2cc(-c3cc(C(F)(F)F)nc(S(=O)(=O)CCCC(=O)N(C)C)n3)ccc2=O)cc1OC`, which EC50 is on record?
**A.** The EC50 was 164 nM.

**Q.** With `CCCCCS(=O)(=O)c1nc(-c2ccc(=O)n(Cc3ccc(OC)c(OC)c3)c2)cc(C(F)(F)F)n1` as the compound, how does the EC50 read?
**A.** Its EC50 is 364 nM.

**Q.** Which EC50 does the source give for `C#Cc1ccc(Cn2cc(-c3cc(C(F)(F)F)nc(S(C)(=O)=O)n3)ccc2=O)cc1` here?
**A.** Its EC50 is 817 nM.

**Q.** Which EC50 does the source give for `CCCOc1cccc(Cn2cc(-c3cc(C(F)(F)F)nc(S(C)(=O)=O)n3)ccc2=O)c1` here?
**A.** The EC50 was 69 nM.

**Q.** Which EC50 does the source give for `CS(=O)(=O)c1nc(-c2ccc(=O)n(Cc3ccc(Cl)cc3)c2)cc(C(F)(F)F)n1` here?
**A.** The EC50 was 66 nM.

**Q.** For `CS(=O)(=O)c1nc(-c2ccc(=O)[nH]c2)cc(C(F)(F)F)n1`, which EC50 is on record?
**A.** The EC50 was > 20000 nM.

**Q.** Which EC50 does the source give for `COC(=O)c1ccc(-c2cc(C(F)(F)F)nc(S(C)(=O)=O)n2)cc1` here?
**A.** The EC50 was > 20000 nM.

**Q.** Which EC50 does the source give for `CS(=O)(=O)c1nc(N=[N+]=[N-])cc(-c2cccs2)n1` here?
**A.** Its EC50 is > 20000 nM.

**Q.** For `O=S(=O)(CCc1ccccc1)c1nc(-c2cccs2)cc(C(F)(F)F)n1`, which EC50 is on record?
**A.** Its EC50 is 1590 nM.

**Q.** Which EC50 does the source give for `CS(=O)(=O)c1nc(-c2ccccc2)cc(C(F)(F)F)n1` [MLS000044644] here?
**A.** Its EC50 is 2200 nM.

**Q.** With `CS(=O)(=O)c1nc(-c2cccs2)cc(C(F)(F)F)n1` [MLS000044645] as the compound, how does the EC50 read?
**A.** The EC50 was 749 nM.
